Legend:
[1] = tested on: HUVECs; assay: mRNA angiogenesis array (TaqMan Array qPCR) in HUVECs; assay type: cell-based, human; design: ANG,RNASE4, array raw value (Figure 8B, well A10) / GAPDH, array raw value (Figure 8B, well A2) / EDIL3, array raw value (Figure 8B, well B2) / FGF1, array raw value (Figure 8B, well B4) / TIMP2, array raw value (Figure 8B, well E10) / SEMA3F, array raw value (Figure 8B, well E6) / CEACAM1, array raw value (Figure 8B, well F2) / LYVE1, array raw value (Figure 8B, well F6): scale not given here
Experimental: Angiogenesis array. Total RNA was isolated from MIO-MI cells (8 hours) and HUVECs (16 […]
cDNA was prepared with QuantiTect® Reverse Transcription Kit (Qiagen, Cat# 205311). RT-qPCR assay was performed with pre-configured TaqMan Array 96-Well FAST Plate for human angiogenic gene expression (Applied Biosystems, Inc) following the manufacture’s protocol. Each plate contains pre-defined genes including 18S, GAPDH and HPRT1 endogenous controls.
TaqMan Array plates were prepared by loading on each well 5 μl of cDNA sample (30 ng) with nuclease-free water and 5 μl of TaqMan™ Fast Advanced Master Mix (Applied Biosystem, Cat# […]
4444554). The reaction was performed using the QuantStudio™ 3 Flex Real‐Time PCR System as follows: 2 minutes at 50°C (stage 1); 10 minutes at 95°C (stage 2); 15 seconds at 95°C and 1 minutes at 60°C for 40 cycles (stage 3). The data were analyzed by using HPRT1 as endogenous […]
The clustering heatmaps were produced with “pheatmap” library in R with scale = row and clustering method = complete.
HUVEC cells, Euclidean distance was used to quantify the difference in qPCR screening. The Euclidean distance was calculated using “dist” function from R’s default stat library that measures the distance between 2 vectors (i.e., total qPCR expression values in control and treatment). In […]

[2] = tested on: HIF transcriptional activity; details: cell-based reporter assay; read-out: IC50, inhibition of HIF transcriptional activity; cited from earlier work
[3] = target: HIF-1α (Homo sapiens, UniProt Q16665); assay: Immunoblot of HIF-1α accumulation in MIO-M1 cells cultured in hypoxia; assay type: cell-based; design: endogenous in cells; host or cells: MIO-M1
Experimental: MIO-M1, HUVECs, and ARPE19 cells were cultured in DMEM with 10% (vol/vol) FBS (Quality Biological) and 1% penicillin/streptomycin (Cellgro). A hypoxic chamber (Coy Laboratory Product Inc.; Two Glove Model) with 5% CO2, 94% N2, and 1% O2 gas concentration at 37°C was used to culture hypoxic cells. The control cells were cultured in an incubator maintained at 37°C, with 21% O2 and 5% CO2. […] Aflibercept was obtained from the Johns Hopkins University Pharmacy.
Immunoblot assays. Cells, neurosensory retina, and D120 retinal organoid lysates were subjected
to 4–15% gradient SDS/PAGE (Invitrogen). Immunoblot (Western blot or WB) assays were
performed as previously described (1). […]

Chain of HIF-1α (Q16665 whole entry): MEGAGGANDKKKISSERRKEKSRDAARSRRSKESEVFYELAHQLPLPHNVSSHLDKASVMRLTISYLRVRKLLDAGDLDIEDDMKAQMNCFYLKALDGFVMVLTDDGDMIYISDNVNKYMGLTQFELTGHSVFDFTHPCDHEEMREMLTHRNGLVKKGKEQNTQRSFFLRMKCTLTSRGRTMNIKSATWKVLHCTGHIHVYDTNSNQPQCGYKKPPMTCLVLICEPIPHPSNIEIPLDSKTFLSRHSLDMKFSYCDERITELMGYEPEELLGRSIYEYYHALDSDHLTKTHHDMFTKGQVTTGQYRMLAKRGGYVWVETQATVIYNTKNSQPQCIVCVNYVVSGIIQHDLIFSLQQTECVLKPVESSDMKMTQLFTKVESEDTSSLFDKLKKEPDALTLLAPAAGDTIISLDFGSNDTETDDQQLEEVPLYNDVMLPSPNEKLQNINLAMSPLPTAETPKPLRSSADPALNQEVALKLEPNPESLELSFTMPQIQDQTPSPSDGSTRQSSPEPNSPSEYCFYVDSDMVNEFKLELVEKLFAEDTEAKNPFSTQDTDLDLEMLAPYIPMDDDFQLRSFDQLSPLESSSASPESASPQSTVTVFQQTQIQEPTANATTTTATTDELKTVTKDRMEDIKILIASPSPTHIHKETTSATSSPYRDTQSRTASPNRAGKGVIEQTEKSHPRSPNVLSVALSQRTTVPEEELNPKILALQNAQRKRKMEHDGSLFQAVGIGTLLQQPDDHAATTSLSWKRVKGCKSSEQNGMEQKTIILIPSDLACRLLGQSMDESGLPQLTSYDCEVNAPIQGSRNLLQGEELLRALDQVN

Compound: Brc1ccc2c(-c3csc(-c4c[nH]c5c(Br)cccc45)n3)c[nH]c2c1 [32-134D, 4-(6-bromo-1H-indol-3-yl)-2-(7-bromo-1H-indol-3-yl)thiazole]
- 18S, array raw value (Figure 8B, well A1) ([1]; HUVEC, 1%O2+32-134D): 20.1818
- ADAMTS1, array raw value (Figure 8B, well D10) ([1]; HUVEC, 1%O2+32-134D): 29.7994
- AMOT, array raw value (Figure 8B, well D12) ([1]; HUVEC, 1%O2+32-134D): 39.0386
- ANG,RNASE4, array raw value (Figure 8B, well A10) ([1]; HUVEC, 1%O2+32-134D): 28.1406
- ANGPT1, array raw value (Figure 8B, well A11) ([1]; HUVEC, 1%O2+32-134D): 30.8384
- ANGPT2, array raw value (Figure 8B, well A12) ([1]; HUVEC, 1%O2+32-134D): 32.8047
- ANGPTL2, array raw value (Figure 8B, well E12) ([1]; HUVEC, 1%O2+32-134D): 30.2341
- ANGPTL4, array raw value (Figure 8B, well H5) ([1]; HUVEC, 1%O2+32-134D): 21.86
- CD44, array raw value (Figure 8B, well E1) ([1]; HUVEC, 1%O2+32-134D): 23.3811
- CDH5, array raw value (Figure 8B, well E2) ([1]; HUVEC, 1%O2+32-134D): 24.9237
- CEACAM1, array raw value (Figure 8B, well F2) ([1]; HUVEC, 1%O2+32-134D): 29.9396
- COL4A1, array raw value (Figure 8B, well G2) ([1]; HUVEC, 1%O2+32-134D): 30.6479
- COL4A2, array raw value (Figure 8B, well G3) ([1]; HUVEC, 1%O2+32-134D): 28.7346
- COL18A1, array raw value (Figure 8B, well G6) ([1]; HUVEC, 1%O2+32-134D): 29.7073
- CSF3, array raw value (Figure 8B, well H1) ([1]; HUVEC, 1%O2+32-134D): 33.4203
- CTGF, array raw value (Figure 8B, well C10) ([1]; HUVEC, 1%O2+32-134D): 23.3834
- CXCL2, array raw value (Figure 8B, well E3) ([1]; HUVEC, 1%O2+32-134D): 30.6168
- CXCL10, array raw value (Figure 8B, well D5) ([1]; HUVEC, 1%O2+32-134D): 36.21
- EDIL3, array raw value (Figure 8B, well B2) ([1]; HUVEC, 1%O2+32-134D): 26.4682
- EPHB2, array raw value (Figure 8B, well B3) ([1]; HUVEC, 1%O2+32-134D): 28.307
- FGF1, array raw value (Figure 8B, well B4) ([1]; HUVEC, 1%O2+32-134D): 29.8889
- FGF2, array raw value (Figure 8B, well B5) ([1]; HUVEC, 1%O2+32-134D): 30.0294
- FIGF, array raw value (Figure 8B, well F12) ([1]; HUVEC, 1%O2+32-134D): 33.3841
- FLT1, array raw value (Figure 8B, well E5) ([1]; HUVEC, 1%O2+32-134D): 30.21
- FN1, array raw value (Figure 8B, well G7) ([1]; HUVEC, 1%O2+32-134D): 28.5669
- FOXC2, array raw value (Figure 8B, well G1) ([1]; HUVEC, 1%O2+32-134D): 27.8513
- FST, array raw value (Figure 8B, well B7) ([1]; HUVEC, 1%O2+32-134D): 31.5936
- GAPDH, array raw value (Figure 8B, well A2) ([1]; HUVEC, 1%O2+32-134D): 20.3521
- GRN, array raw value (Figure 8B, well H2) ([1]; HUVEC, 1%O2+32-134D): 22.2393
- GUSB, array raw value (Figure 8B, well A4) ([1]; HUVEC, 1%O2+32-134D): 25.0498
- HEY1, array raw value (Figure 8B, well F3) ([1]; HUVEC, 1%O2+32-134D): 34.3049
- HPRT1, array raw value (Figure 8B, well A3) ([1]; HUVEC, 1%O2+32-134D): 25.0367
- HSPG2, array raw value (Figure 8B, well G5) ([1]; HUVEC, 1%O2+32-134D): 27.52
- IFNB1, array raw value (Figure 8B, well D3) ([1]; HUVEC, 1%O2+32-134D): 35.432
- IL8, array raw value (Figure 8B, well B9) ([1]; HUVEC, 1%O2+32-134D): 26.4133
- IL12A, array raw value (Figure 8B, well D6) ([1]; HUVEC, 1%O2+32-134D): 34.4259
- ITGA4, array raw value (Figure 8B, well D2) ([1]; HUVEC, 1%O2+32-134D): 28.3072
- ITGAV, array raw value (Figure 8B, well F4) ([1]; HUVEC, 1%O2+32-134D): 26.1181
- ITGB3, array raw value (Figure 8B, well H6) ([1]; HUVEC, 1%O2+32-134D): 25.3974
- KDR, array raw value (Figure 8B, well F10) ([1]; HUVEC, 1%O2+32-134D): 30.1984
- LYVE1, array raw value (Figure 8B, well F6) ([1]; HUVEC, 1%O2+32-134D): 34.6146
- MDK, array raw value (Figure 8B, well B11) ([1]; HUVEC, 1%O2+32-134D): 23.8862
- MMP2, array raw value (Figure 8B, well A9) ([1]; HUVEC, 1%O2+32-134D): 21.2904
- NRP1, array raw value (Figure 8B, well H10) ([1]; HUVEC, 1%O2+32-134D): 28.4453
- NRP2, array raw value (Figure 8B, well F9) ([1]; HUVEC, 1%O2+32-134D): 25.1088
- PDGFB, array raw value (Figure 8B, well C1) ([1]; HUVEC, 1%O2+32-134D): 28.0672
- PECAM1, array raw value (Figure 8B, well F5) ([1]; HUVEC, 1%O2+32-134D): 23.24
- PF4, array raw value (Figure 8B, well D8) ([1]; HUVEC, 1%O2+32-134D): 38.4479
- PLG, array raw value (Figure 8B, well A6) ([1]; HUVEC, 1%O2+32-134D): 36.8052
- PROX1, array raw value (Figure 8B, well H12) ([1]; HUVEC, 1%O2+32-134D): 31.6234
- PTN, array raw value (Figure 8B, well C2) ([1]; HUVEC, 1%O2+32-134D): 36.9532
- S1PR1, array raw value (Figure 8B, well H11) ([1]; HUVEC, 1%O2+32-134D): 25.2945
- SEMA3F, array raw value (Figure 8B, well E6) ([1]; HUVEC, 1%O2+32-134D): 31.8531
- SERPINB5, array raw value (Figure 8B, well E4) ([1]; HUVEC, 1%O2+32-134D): 36.9759
- SERPINC1, array raw value (Figure 8B, well A7) ([1]; HUVEC, 1%O2+32-134D): 34.8884
- SERPINF1, array raw value (Figure 8B, well D7) ([1]; HUVEC, 1%O2+32-134D): 37.5691
- TEK, array raw value (Figure 8B, well E7) ([1]; HUVEC, 1%O2+32-134D): 27.2772
- TGFA, array raw value (Figure 8B, well C4) ([1]; HUVEC, 1%O2+32-134D): 29.7382
- TGFB1, array raw value (Figure 8B, well C5) ([1]; HUVEC, 1%O2+32-134D): 24.01
- THBS1, array raw value (Figure 8B, well C12) ([1]; HUVEC, 1%O2+32-134D): 23.1291
- TIE1, array raw value (Figure 8B, well E8) ([1]; HUVEC, 1%O2+32-134D): 30.7653
- TIMP2, array raw value (Figure 8B, well E10) ([1]; HUVEC, 1%O2+32-134D): 25.4299
- TIMP3, array raw value (Figure 8B, well E11) ([1]; HUVEC, 1%O2+32-134D): 25.8838
- TNFSF15, array raw value (Figure 8B, well D1) ([1]; HUVEC, 1%O2+32-134D): 25.7168
- TNMD, array raw value (Figure 8B, well E9) ([1]; HUVEC, 1%O2+32-134D): 37.1045
- TYMP, array raw value (Figure 8B, well B12) ([1]; HUVEC, 1%O2+32-134D): 39.1978
- VASH1, array raw value (Figure 8B, well D9) ([1]; HUVEC, 1%O2+32-134D): 30.8647
- VEGFA, array raw value (Figure 8B, well C7) ([1]; HUVEC, 1%O2+32-134D): 30.4927
- VEGFB, array raw value (Figure 8B, well C8) ([1]; HUVEC, 1%O2+32-134D): 27.5522
- VEGFC, array raw value (Figure 8B, well C9) ([1]; HUVEC, 1%O2+32-134D): 27.3225
- ANGPTL4 mRNA (angiogenesis array, Figure 8C) ([1]; HUVEC, Hy+32-134D, Normal = 1): 35.2355
- COL4A1 mRNA (angiogenesis array, Figure 8C) ([1]; HUVEC, Hy+32-134D, Normal = 1): 3.543
- COL4A2 mRNA (angiogenesis array, Figure 8C) ([1]; HUVEC, Hy+32-134D, Normal = 1): 2.168
- CTGF mRNA (angiogenesis array, Figure 8C) ([1]; HUVEC, Hy+32-134D, Normal = 1): 3.12
- EPHB2 mRNA (angiogenesis array, Figure 8C) ([1]; HUVEC, Hy+32-134D, Normal = 1): 2.119
- HSPG2 mRNA (angiogenesis array, Figure 8C) ([1]; HUVEC, Hy+32-134D, Normal = 1): 1.339
- ITGB3 mRNA (angiogenesis array, Figure 8C) ([1]; HUVEC, Hy+32-134D, Normal = 1): 3.6621
- MMP2 mRNA (angiogenesis array, Figure 8C) ([1]; HUVEC, Hy+32-134D, Normal = 1): 3.052
- PDGFB mRNA (angiogenesis array, Figure 8C) ([1]; HUVEC, Hy+32-134D, Normal = 1): 2.63
- PROX1 mRNA (angiogenesis array, Figure 8C) ([1]; HUVEC, Hy+32-134D, Normal = 1): 2.021
- TGFA mRNA (angiogenesis array, Figure 8C) ([1]; HUVEC, Hy+32-134D, Normal = 1): 2.2277
- TGFB1 mRNA (angiogenesis array, Figure 8C) ([1]; HUVEC, Hy+32-134D, Normal = 1): 1.578
- TNMD mRNA (angiogenesis array, Figure 8C) ([1]; HUVEC, Hy+32-134D, Normal = 1): 1.388
- VEGFA mRNA (angiogenesis array, Figure 8C) ([1]; HUVEC, Hy+32-134D, Normal = 1): 4.067
- VEGFC mRNA (angiogenesis array, Figure 8C) ([1]; HUVEC, Hy+32-134D, Normal = 1): 3.879
- reduction in the Euclidean distance between control and hypoxic cell angiogenic gene expression ([1]; HUVECs, from 209 to 35): 83%
- IC50 [2]: < 4 µM
- HIF-1α protein accumulation in response to hypoxia ([3]; MIO-M1, 1 μM 32-134D, 1% O2 4 hours): decreased
- persistence of effect on HIF-1α accumulation after treatment ([3]; MIO-M1, 10 μM, hypoxia 1 to 24 hours): up to 16 hours
- IC50 ([3]; MIO-M1 cells cultured in hypoxia, read-out: IC50, HIF-1α protein accumulation (quantitation of immunoblots)): 3.5 µM
